Results on 2 compounds are retold here after patent publication US8778954B2, “Phenylpyridine derivative and medicinal agent comprising same” (Kowa Company, Ltd., priority 2009, dated 2014).

In general, EC50 refers to the concentration at which the effect is half-maximal.

Molecules are shown by their SMILES.

The assay has as its target T1, human PPARγ2 (Homo sapiens, UniProt P37231).
T1 construct: the amino acids 182 to 505 of human PPARγ2; expressed in transfected cells; host or cells: COS7 cells (African green monkey kidney)
T1 sequence (P37231 182-505): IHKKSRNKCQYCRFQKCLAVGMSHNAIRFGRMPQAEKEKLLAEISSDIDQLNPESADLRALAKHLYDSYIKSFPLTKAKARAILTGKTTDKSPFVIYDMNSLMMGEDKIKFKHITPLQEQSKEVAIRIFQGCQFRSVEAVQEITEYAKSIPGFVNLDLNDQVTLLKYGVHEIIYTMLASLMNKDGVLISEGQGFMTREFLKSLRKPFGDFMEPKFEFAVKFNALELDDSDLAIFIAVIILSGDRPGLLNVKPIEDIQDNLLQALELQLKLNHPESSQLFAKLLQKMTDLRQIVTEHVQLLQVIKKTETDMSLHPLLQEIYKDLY
Briefly: PPARγ activation activity, Gal4-PPARγ2 LBD luciferase transfection assay using COS7 cells. To be noted: Gal4-human PPARγ2 LBD chimera, 16 hours, rosiglitazone = 100%. It is filed as cell-based.

With `CCCCc1nc(C(C)C)n(-c2ncc(OCC)cn2)c(=O)c1Cc1ccc(-c2ccccc2-c2noc(=O)[nH]2)nc1` [Example 21, 3-{2-{5-{[4-butyl-1-(5-ethoxypyrimidin-2-yl)-2-isopropyl-6-oxo-1,6-dihydropyrimidin-5-yl]methyl}pyridin-2-yl}phenyl}-1,2,4-oxadiazol-5(4H)-one], it took 450 nM to reach a half-maximal effect (EC50). To `CCCCc1nc(C2CC2)n(-c2ncc(OCC)cn2)c(=O)c1Cc1ccc(-c2ccccc2-c2noc(=O)[nH]2)nc1` [Example 23, 3-{2-{5-{[4-butyl-2-cyclopropyl-1-(5-ethoxypyrimidin-2-yl)-6-oxo-1,6-dihydropyrimidin-5-yl]methyl}pyridin-2-yl}phenyl}-1,2,4-oxadiazol-5(4H)-one] belongs 760 nM.
